Data taken from ChEMBL document CHEMBL3779777, “Novel amalgamation of phthalazine-quinolines as biofilm inhibitors: One-pot synthesis, biological evaluation and in silico ADME prediction with favorable metabolic fate” (Bioorg Med Chem Lett, 2016).
In brackets after ≈: the same amount, converted by molar mass. Activity calls are given as the source filed them. The rule behind the calls is not given here.

Experiments:
Staphylococcus aureus = test: Antibacterial activity against Staphylococcus aureus NCIM-2901 by standard agar method; type: functional
Bacillus subtilis = test: Antibacterial activity against Bacillus subtilis NCIM-2063 by standard agar method; type: functional
Candida albicans [1] = test: Antibiofilm activity against Candida albicans after 24 hrs by MTT assay; type: functional, organism-based
Pseudomonas aeruginosa [2] = test: Antibacterial activity against Pseudomonas aeruginosa NCIM-2036 by standard agar method; type: functional
Pseudomonas aeruginosa [3] = test: Antibiofilm activity against Pseudomonas aeruginosa PAO1 after 18 hrs by crystal violet staining based spectroscopy; type: functional, organism-based; settings: PAO1, 18 h
Candida albicans [4] = test: Antifungal activity against Candida albicans NCIM-3471 by standard agar method; type: functional
Pseudomonas aeruginosa [5] = test: Antibiofilm activity against Pseudomonas aeruginosa assessed as inhibition of biofilm formation after […] by Field emission scanning electron microscopy; type: functional, organism-based
Candida albicans [6] = test: Antibiofilm activity against Candida albicans assessed as inhibition of biofilm formation after […] by Field emission scanning electron microscopy; type: functional, organism-based

Compound | MIC (Staphylococcus aureus) [µg/mL] | MIC (Bacillus subtilis) [µg/mL] | IC50 (Candida albicans [1]) [µM] | MIC (Pseudomonas aeruginosa [2]) [µg/mL] | IC50 (Pseudomonas aeruginosa [3]) [µM] | MIC (Candida albicans [4]) [µg/mL] | inhibition (Pseudomonas aeruginosa [5]) | inhibition (Candida albicans [6])
Cc1ccc2nc(Cl)c(C3C4=C(CC(C)(C)CC4=O)n4c(=O)c5ccccc5c(=O)n43)cc2c1 (stereo not drawn) | 77.5 (≈ 164 µM) | 158 (≈ 334 µM) | 51 | 150 (≈ 318 µM) | 46.5 | 175 (≈ 371 µM) |  | 
Cc1ccc2cc(C3C4=C(CC(C)(C)CC4=O)n4c(=O)c5ccccc5c(=O)n43)c(Cl)nc2c1 (stereo not drawn) | 70 (≈ 148 µM) | 87.5 (≈ 185 µM) | 49.5 | 185 (≈ 392 µM) | 51 | 112 (≈ 238 µM) |  | 
Cc1ccc2c(c1)cc(C1C3=C(CC(C)(C)CC3=O)n3c(=O)c4ccccc4c(=O)n31)c1nnnn12 (stereo not drawn) | 225 (≈ 470 µM) | 158 (≈ 329 µM) | 70.5 | 67.5 (≈ 141 µM) | 64.5 | 67.5 (≈ 141 µM) |  | 
Cc1cccc2cc(C3C4=C(CC(C)(C)CC4=O)n4c(=O)c5ccccc5c(=O)n43)c(Cl)nc12 (stereo not drawn) | 67.5 (≈ 143 µM) | 142 (≈ 302 µM) | 37.5 | 120 (≈ 254 µM) | 66 | 50 (≈ 106 µM) |  | 
COc1ccc2c(c1)cc(C1C3=C(CC(C)(C)CC3=O)n3c(=O)c4ccccc4c(=O)n31)c1nnnn12 (stereo not drawn) | 225 (≈ 455 µM) | 188 (≈ 379 µM) | 81 | 67.5 (≈ 136 µM) | 46.5 | 195 (≈ 394 µM) |  | 
CC1(C)CC(=O)C2=C(C1)n1c(=O)c3ccccc3c(=O)n1C2c1cc2ccccc2nc1Cl (stereo not drawn) | 178 (≈ 390 µM) | 148 (≈ 324 µM) | 79.5 | 45 (≈ 98.3 µM) | 30 | 125 (≈ 273 µM) | Active | 
Cc1cccc2cc(C3C4=C(CC(C)(C)CC4=O)n4c(=O)c5ccccc5c(=O)n43)c3nnnn3c12 (stereo not drawn) | 91.5 (≈ 191 µM) | 170 (≈ 355 µM) | 61.5 | 84.5 (≈ 177 µM) | 61.5 | 175 (≈ 366 µM) |  | 
COc1ccc2nc(Cl)c(C3C4=C(CC(C)(C)CC4=O)n4c(=O)c5ccccc5c(=O)n43)cc2c1 (stereo not drawn) | 77.5 (≈ 159 µM) | 57.5 (≈ 118 µM) | 36 | 205 (≈ 420 µM) | 73.5 | 55 (≈ 113 µM) |  | 
Cc1ccc2cc(C3C4=C(CC(C)(C)CC4=O)n4c(=O)c5ccccc5c(=O)n43)c3nnnn3c2c1 (stereo not drawn) | 112 (≈ 234 µM) | 158 (≈ 329 µM) | 67.5 | 102 (≈ 213 µM) | 51 | 55 (≈ 115 µM) |  | 
O=C(O)c1cn(C2CC2)c2cc(N3CCNCC3)c(F)cc2c1=O [CIPROFLOXACIN] |  |  |  | 50 (≈ 151 µM) | 47 |  |  | 
CC1(C)CC(=O)C2=C(C1)n1c(=O)c3ccccc3c(=O)n1C2c1cc2ccccc2n2nnnc12 (stereo not drawn) | 85 (≈ 183 µM) | 100 (≈ 215 µM) | 49.5 | 68.5 (≈ 147 µM) | 66 | 112 (≈ 242 µM) |  | 
OC(Cn1cncn1)(Cn1cncn1)c1ccc(F)cc1F [FLUCONAZOLE] |  |  | 40 |  |  | 50 (≈ 163 µM) |  | 
COc1ccc2cc(C3C4=C(CC(C)(C)CC4=O)n4c(=O)c5ccccc5c(=O)n43)c(Cl)nc2c1 (stereo not drawn) | 102 (≈ 209 µM) | 98.5 (≈ 202 µM) | 34.5 | 110 (≈ 225 µM) | 58.5 | 57.5 (≈ 118 µM) |  | Active
COc1ccc2cc(C3C4=C(CC(C)(C)CC4=O)n4c(=O)c5ccccc5c(=O)n43)c3nnnn3c2c1 (stereo not drawn) | 195 (≈ 394 µM) | 168 (≈ 340 µM) | 43.5 | 250 (≈ 506 µM) | 72 | 220 (≈ 445 µM) |  | 
